In ChEMBL document CHEMBL1139284, “Synthesis and evaluation of novel photoreactive alpha-amino acid analog carrying acidic and cleavable functions” (Bioorg Med Chem Lett, 2009):
Calls of active or inactive are those of the source. The calls are words filed in the database; no cut-off is given here.

Legend:
Glutamyl endopeptidase = Glutamyl endopeptidase (Staphylococcus aureus, UniProt P0C1U8); assay: Binding affinity to Staphylococcus aureus V8 glutamyl endopeptidase; settings: read-out: Ki(app)
Sequence of Glutamyl endopeptidase (P0C1U8 whole entry): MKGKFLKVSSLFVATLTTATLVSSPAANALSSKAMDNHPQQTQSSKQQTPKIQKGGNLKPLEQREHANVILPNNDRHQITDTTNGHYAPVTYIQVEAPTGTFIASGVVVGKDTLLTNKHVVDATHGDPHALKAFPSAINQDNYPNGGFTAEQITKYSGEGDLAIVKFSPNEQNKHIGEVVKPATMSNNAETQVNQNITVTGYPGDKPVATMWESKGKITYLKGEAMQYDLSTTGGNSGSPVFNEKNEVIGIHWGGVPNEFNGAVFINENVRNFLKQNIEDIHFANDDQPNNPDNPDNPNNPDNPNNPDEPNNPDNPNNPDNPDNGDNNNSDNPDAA

[1] = biological target: Glutamyl endopeptidase (Staphylococcus aureus) (UniProt P0C1U8); assay: Binding affinity to Staphylococcus aureus V8 glutamyl endopeptidase after 40 mins of UV irradiation by photoaffinity labeling assay
Sequence of Glutamyl endopeptidase (Staphylococcus aureus) (P0C1U8 whole entry): as above

| Compound | Ki (Glutamyl endopeptidase) | Activity [1] |
| --- | --- | --- |
| CC(C)(C)OC(=O)N[C@@H](CS(=O)(=O)NC(=O)c1ccc(C2(C(F)(F)F)N=N2)cc1)C(=O)NCCOCCOCCNC(=O)CCCC[C@@H]1SCC2NC(=O)NC21 (some centres undefined) | 162 µM |  |
| CC(C)(C)OC(=O)N[C@@H](CCC(=O)OCc1ccccc1)C(N)=O |  | inactive |
| CC(C)(C)OC(=O)N[C@@H](CS(=O)(=O)NC(=O)c1ccccc1)C(N)=O |  | Active |
| CC(C)(C)OC(=O)N[C@@H](CCC(=O)O)C(N)=O |  | Active |
